Reference: the supplement of paper PMC10307832

Legend:
Experiment in all cases: relative viability (nuclei count vs DMSO), 5 days (fraction); higher = more cells survive
[1] = test system: 201T
How it was run: (§1)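 Five library-drug doses in √10 steps were combined with a fixed anchor-drug dose, or a single drug was given alone, by pin tool to lung cancer cell lines in 1536-well plates the day after seeding. Nuclei were stained and counted after 5 days. Relative viability is the nuclei count in treated wells over that in vehicle wells, taken as the median of duplicate plates.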

[2] = test system: COR-L23
How it was run: as §1

[3] = test system: H3255
How it was run: as §1

[4] = test system: HARA
How it was run: as §1

[5] = test system: HCC-366
How it was run: as §1

[6] = test system: HCC-78
How it was run: as §1

[7] = test system: LU99A
How it was run: as §1

[8] = test system: NCI-H1650
How it was run: as §1

[9] = test system: NCI-H1651
How it was run: as §1

[10] = test system: NCI-H1755
How it was run: as §1

[11] = test system: NCI-H1793
How it was run: as §1

[12] = test system: NCI-H2085
How it was run: as §1

[13] = test system: NCI-H2087
How it was run: as §1

[14] = test system: NCI-H23
How it was run: as §1

[15] = test system: NCI-H3122
How it was run: as §1

[16] = test system: NCI-H322M
How it was run: as §1

[17] = test system: NCI-H358
How it was run: as §1

[18] = test system: NCI-H460
How it was run: as §1

[19] = test system: NCI-H522
How it was run: as §1

[20] = test system: NCI-H596
How it was run: as §1

[21] = test system: NCI-H650
How it was run: as §1

[22] = test system: PC-3 [JPC-3]
How it was run: as §1

[23] = test system: SK-LU-1
How it was run: as §1

`CN1CCN(CCOc2cc(OC3CCOCC3)c3c(Nc4c(Cl)ccc5c4OCO5)ncnc3c2)CC1` [Saracatinib] + Cc1cc(Nc2cc(N3CCN(C)CC3)nc(Sc3ccc(NC(=O)C4CC4)cc3)n2)n[nH]1 [Tozasertib] (partner 0.1 µM) was tested, and the relative viability ([1]; first compound 0.02 µM) was 0.977, the relative viability ([1]; first compound 0.2 µM) was 0.89 and the relative viability ([1]; first compound 0.6325 µM) was 0.821. The relative viability ([1]; first compound 2 µM) was 0.686, the relative viability ([2]; first compound 0.02 µM) was 0.185 and the relative viability ([2]; first compound 0.2 µM) was 0.207. It also gave a relative viability ([2]; first compound 0.6325 µM) of 0.155, a relative viability ([2]; first compound 2 µM) of 0.174 and a relative viability ([3]; first compound 0.02 µM) of 0.621. For the same compound, the relative viability ([3]; first compound 0.2 µM) was 0.585, the relative viability ([3]; first compound 0.6325 µM) was 0.444 and the relative viability ([3]; first compound 2 µM) was 0.291. The relative viability ([4]; first compound 0.02 µM) was 0.118, the relative viability ([4]; first compound 0.2 µM) was 0.0998 and the relative viability ([4]; first compound 0.6325 µM) was 0.0847. The relative viability ([4]; first compound 2 µM) was 0.0726, the relative viability ([5]; first compound 0.02 µM) was 0.117 and the relative viability ([5]; first compound 0.6325 µM) was 0.074. For the same compound, the relative viability ([5]; first compound 2 µM) was 0.0412, the relative viability ([6]; first compound 0.02 µM) was 0.403 and the relative viability ([6]; first compound 0.6325 µM) was 0.572. The relative viability ([6]; first compound 2 µM) was 0.405, the relative viability ([7]; first compound 0.02 µM) was 0.26 and the relative viability ([7]; first compound 0.2 µM) was 0.249. For the same compound, the relative viability ([7]; first compound 0.6325 µM) was 0.226, the relative viability ([7]; first compound 2 µM) was 0.217 and the relative viability ([8]; first compound 0.02 µM) was 0.435. For the same compound, the relative viability ([8]; first compound 0.2 µM) was 0.294, the relative viability ([8]; first compound 0.6325 µM) was 0.22 and the relative viability ([8]; first compound 2 µM) was 0.204. The relative viability ([9]; first compound 0.02 µM) was 0.71, the relative viability ([9]; first compound 0.2 µM) was 0.555 and the relative viability ([9]; first compound 0.6325 µM) was 0.691. For the same compound, the relative viability ([9]; first compound 2 µM) was 0.625, the relative viability ([10]; first compound 0.02 µM) was 0.526 and the relative viability ([10]; first compound 0.2 µM) was 0.528. It also gave a relative viability ([10]; first compound 0.6325 µM) of 0.644, a relative viability ([10]; first compound 2 µM) of 0.459 and a relative viability ([11]; first compound 0.02 µM) of 0.318. The relative viability ([11]; first compound 0.6325 µM) was 0.209, the relative viability ([11]; first compound 2 µM) was 0.142 and the relative viability ([12]; first compound 0.02 µM) was 0.816. The relative viability ([12]; first compound 0.2 µM) was 0.676, the relative viability ([12]; first compound 0.6325 µM) was 0.722 and the relative viability ([12]; first compound 2 µM) was 0.707. For the same compound, the relative viability ([13]; first compound 0.02 µM) was 0.224, the relative viability ([13]; first compound 0.2 µM) was 0.206 and the relative viability ([13]; first compound 0.6325 µM) was 0.258. It also gave a relative viability ([13]; first compound 2 µM) of 0.231, a relative viability ([14]; first compound 0.02 µM) of 0.743 and a relative viability ([14]; first compound 0.2 µM) of 0.345. It also gave a relative viability ([14]; first compound 0.6325 µM) of 0.426, a relative viability ([14]; first compound 2 µM) of 0.327 and a relative viability ([15]; first compound 0.02 µM) of 0.569. The relative viability ([15]; first compound 0.2 µM) was 0.358, the relative viability ([15]; first compound 0.6325 µM) was 0.384 and the relative viability ([15]; first compound 2 µM) was 0.298. It also gave a relative viability ([16]; first compound 0.02 µM) of 0.501, a relative viability ([16]; first compound 0.2 µM) of 0.313 and a relative viability ([16]; first compound 0.6325 µM) of 0.439. For the same compound, the relative viability ([16]; first compound 2 µM) was 0.255, the relative viability ([17]; first compound 0.02 µM) was 0.118 and the relative viability ([17]; first compound 0.2 µM) was 0.0883. The relative viability ([17]; first compound 0.6325 µM) was 0.0859, the relative viability ([17]; first compound 2 µM) was 0.0757 and the relative viability ([18]; first compound 0.02 µM) was 0.407. For the same compound, the relative viability ([18]; first compound 0.2 µM) was 0.397, the relative viability ([18]; first compound 0.6325 µM) was 0.433 and the relative viability ([18]; first compound 2 µM) was 0.279. The relative viability ([19]; first compound 0.02 µM) was 0.557, the relative viability ([19]; first compound 0.6325 µM) was 0.534 and the relative viability ([19]; first compound 2 µM) was 0.458. For the same compound, the relative viability ([20]; first compound 0.02 µM) was 0.8, the relative viability ([20]; first compound 0.2 µM) was 0.847 and the relative viability ([20]; first compound 0.6325 µM) was 1.07. The relative viability ([20]; first compound 2 µM) was 0.708, the relative viability ([21]; first compound 0.02 µM) was 0.65 and the relative viability ([21]; first compound 0.2 µM) was 0.656. For the same compound, the relative viability ([21]; first compound 0.6325 µM) was 0.701, the relative viability ([21]; first compound 2 µM) was 0.716 and the relative viability ([22]; first compound 0.02 µM) was 0.933. The relative viability ([22]; first compound 0.2 µM) was 0.824, the relative viability ([22]; first compound 0.6325 µM) was 0.834 and the relative viability ([22]; first compound 2 µM) was 0.469. The relative viability ([23]; first compound 0.02 µM) was 0.354, the relative viability ([23]; first compound 0.2 µM) was 0.231 and the relative viability ([23]; first compound 0.6325 µM) was 0.172. For the same compound, the relative viability ([23]; first compound 2 µM) was 0.132.
